Test results from patent US4169197A, “6-Deoxyneamines aminoglycoside compounds” (The Upjohn Company, priority 1978, dated 1979).
Converted amounts (≈) assume the structure as drawn. Read-outs that look alike come from different tables or passages of the source.

Legend:
Assay in all cases: standard microplate test in BHI Agar
Type in all cases: cell-based
P. rettgeri UC 339 = conditions: Providencia rettgeri, UC339, 20 h
In short: (§1)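 End points are read after 20 hours of incubation at 37°. The medium is Brain Heart Infusion agar in a standard microplate format. Compounds are tested at 1 mg./ml. and at dilutions of that level.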

S. schottmuelleri UC 126 = conditions: 37°, 20 hours
In short: as §1

K. pneumoniae UC 58 = conditions: Klebsiella pneumoniae, UC58, 20 h
In short: as §1

[1] = read-out: Minimal Inhibitory Concentration
[2] = read-out: Minimum Inhibitory Concentration

## NC[C@H]1O[C@H](O[C@H]2[C@H](O)[C@@H](O)[C@H](N)C[C@@H]2N)[C@H](N)[C@@H](O)[C@@H]1O [Neamine]
P. rettgeri UC 339; [1]
  MIC: > 500 mg/L
P. rettgeri UC 339; [2]
  MIC: 250 mg/L (≈ 776 µM)
S. schottmuelleri UC 126; Table III, read-out: Minimum Inhibitory Concentration
  MIC: 31.2 mg/L (≈ 96.8 µM)
S. schottmuelleri UC 126; Table IV, read-out: Minimal Inhibitory Concentration
  MIC: 15.6 mg/L (≈ 48.4 µM)
K. pneumoniae UC 58; [1]
  MIC: 7.8 mg/L (≈ 24.2 µM)
K. pneumoniae UC 58; [2]
  MIC: 15.6 mg/L (≈ 48.4 µM)
